US20120328719A1, “EXTERNAL PREPARATION FOR SKIN” (Shiseido Company, Ltd., priority 2010, published 2012)

Assays:
[1] = Measurement of moisture transpiration rate constants (filter paper weight loss); type: physicochemical; conditions: 10 μl on filter paper, slope 3 to 8 min, FIG. 3
Experimental: Heparan sulfate (n=5), chondroitin sulfate A (n=5), chondroitin sulfate B (n=5), keratan sulfate (n=5) and hyaluronic acid (n=5) were dissolved in MilliQ to prepare 0.2% aqueous solutions of each, and 5.0% glycerin (n=5) and MilliQ were prepared for use as a comparative sample (n refers to the respective number of samples). Filter paper cut to a size of 2 cm×2 cm was placed on a balance, and the filter paper was impregnated with 10 μl of each solution followed by measuring the weight of the filter paper for 8 minutes at 1 minute intervals. The weight (mg) of the filter paper from 3 to 8 minutes after the start of measurement was plotted on the vertical axis, elapsed time (min) was plotted on the horizontal axis, and the slope (mg/min) of the resulting line was calculated as the moisture transpiration rate constant (FIG. 3).

[2] = tested on: skin model (EFT-400, MatTek Corp.); assay: Immunostaining of skin models; type: cell-based; conditions: skin model sections, vs control group; for expression level of heparan sulfate (immunostaining): days 4 and 8 of culturing, FIG. 4E-4H; for expression level of loricrin (immunostaining): FIG. 5A-5D; for expression level of filaggrin (immunostaining): FIG. 5E-5H
Experimental: A skin model (EFT-400, MatTek Corp.) was cultured in a special-purpose medium (EFT-400-ASY, MatTek Corp.). Dimethylsulfoxide (DMSO) and ethanol were added to the special-purpose medium to a final concentration of 0.1% for use as a control group, 50 mM 1-[4-(1H-benzoimidazol-2-yl)-phenyl]-3-[4-(1H-benzoimidazol-2-yl)-phenyl]urea (solvent: DMSO) were added to the special-purpose medium to a final concentration of 50 μM for use as a heparanase inhibitor group, 10 mM N-hydroxy-2-[[(4-methoxyphenyl)sulfonyl](3-picolyl)amino]-3-methylbutaneamide hydrochloride (CGS27023A, solvent: ethanol) were added to the special-purpose medium to a final concentration of 10 μM for use as an MMP inhibitor group, and 50 mM 1-[4-(1H-benzoimidazol-2-yl)-phenyl]-3-[4-(1H-benzoimidazol-2-yl)-phenyl]urea (solvent: DMSO) and 10 mM CGS27023A (solvent: ethanol) were added to the special-purpose medium to final concentrations of 50 μM and 10 μM, respectively, for use as a combination heparanase inhibitor+metalloproteinase (MMP) inhibitor group. The medium was replaced daily at 2 mL/well, and the skin model was recovered and used for experimentation on days 4 and 8 of culturing. In addition, during replacement of the medium, all of the culture fluid was collected and stored at −80° C.° for use in the experiments described below.
The skin models following culturing were cut in half with a scalpel and placed in acetone at 4° C. followed by allowing to stand undisturbed for 48 hours at 4° C. The solution was replaced with acetone, methyl benzoate and xylene in that order followed by embedding in paraffin to prepare paraffin blocks in accordance with the AMeX method. Tissue sections having a thickness of 3 μm were prepared followed by immunostaining with perlecan (FIGS. 4A to 4D), heparan sulfate (FIGS. 4E to 4H), loricrin (FIGS. 5A to 5D), filaggrin (FIGS. 5E to 5H) and Ki67 (FIG. 6) on days 4 and 8 of culturing. […] In addition, in the groups containing heparanase inhibitor, the presence of proliferative cells positive for Ki67 was clearly determined to be maintained.

[3] = tested on: skin model (EFT-400, MatTek Corp.); assay: Measurement of hyaluronic acid levels in cultured skin model; type: cell-based; conditions: heparanase inhibitor 50 μM, CGS27023A 10 μM, FIG. 1B
Experimental: A skin model (EFT-400, MatTek Corp.) was cultured in a special-purpose medium (EFT-400-ASY, MatTek Corp.). […]
Measurement of hyaluronic acid levels was carried out on the aforementioned cultured control group (n=5), MMP inhibitor group (n=5), heparanase inhibitor group (n=5) and combination MMP inhibitor+heparanase inhibitor group (n=5) (n refers to the number of each skin model used in testing). […] The culture supernatants stored at −80° C. were then thawed and hyaluronic acid levels in these solutions were then measured with a hyaluronic acid assay kit (Seikagaku Corp.).

moisture transpiration rate constant ([1]; 0.2% aqueous solution)	moisture transpiration rate constant ([1]; 5.0% glycerin comparative sample)	Compound	expression level of heparan sulfate (immunostaining) [2]	expression level of loricrin (immunostaining) [2]	expression level of filaggrin (immunostaining) [2]	hyaluronic acid levels in culture supernatant [3]
remarkably low	–	hyaluronic acid	–	–	–	–
–	roughly the same	OCC(O)CO [glycerin]	–	–	–	–
–	–	COc1ccc(S(=O)(=O)N(Cc2cccnc2)C(C(=O)NO)C(C)C)cc1.Cl (stereo not drawn) [MMP inhibitor, N-hydroxy-2-[[(4-methoxyphenyl)sulfonyl](3-picolyl)amino]-3-methylbutaneamide hydrochloride]	increased	increased	increased	–
–	–	O=C(Nc1ccc(-c2nc3ccccc3[nH]2)cc1)Nc1ccc(-c2nc3ccccc3[nH]2)cc1 [heparanase inhibitor, 1-[4-(1H-benzoimidazol-2-yl)-phenyl]-3-[4-(1H-benzoimidazol-2-yl)-phenyl]urea]	increased	increased	increased	significant decreases
